From article PMC9516332 (Frontiers in Oncology, 2022)
Where two headings read alike, the source gives them in different places.

Columns and labels:
Experiment in all cases: Kinase panel profiling at 1 µmol/L (MSA or IMAP), percentage inhibition
Type in all cases: biochemical
[1] = biological target: panel of 255 wild-type kinases (Homo sapiens, UniProt P22455); settings: read-out: %-inhibition at 1 µmol/L, FGFR4
[2] = biological target: panel of 255 wild-type kinases (Homo sapiens, UniProt P49674); settings: read-out: %-inhibition at 1 µmol/L, CK1ε
[3] = biological target: panel of 255 wild-type kinases (Homo sapiens, UniProt Q06187); settings: read-out: %-inhibition BTK
[4] = biological target: panel of 255 wild-type kinases (Homo sapiens, UniProt Q13131); settings: read-out: %-inhibition AMPKα1/β1/γ1
[5] = biological target: T1, panel of 255 wild-type kinases (Homo sapiens, UniProt Q14164); settings: read-out: %-inhibition at 1 µmol/L, IKKε
T1 sequence (Q14164 1-716): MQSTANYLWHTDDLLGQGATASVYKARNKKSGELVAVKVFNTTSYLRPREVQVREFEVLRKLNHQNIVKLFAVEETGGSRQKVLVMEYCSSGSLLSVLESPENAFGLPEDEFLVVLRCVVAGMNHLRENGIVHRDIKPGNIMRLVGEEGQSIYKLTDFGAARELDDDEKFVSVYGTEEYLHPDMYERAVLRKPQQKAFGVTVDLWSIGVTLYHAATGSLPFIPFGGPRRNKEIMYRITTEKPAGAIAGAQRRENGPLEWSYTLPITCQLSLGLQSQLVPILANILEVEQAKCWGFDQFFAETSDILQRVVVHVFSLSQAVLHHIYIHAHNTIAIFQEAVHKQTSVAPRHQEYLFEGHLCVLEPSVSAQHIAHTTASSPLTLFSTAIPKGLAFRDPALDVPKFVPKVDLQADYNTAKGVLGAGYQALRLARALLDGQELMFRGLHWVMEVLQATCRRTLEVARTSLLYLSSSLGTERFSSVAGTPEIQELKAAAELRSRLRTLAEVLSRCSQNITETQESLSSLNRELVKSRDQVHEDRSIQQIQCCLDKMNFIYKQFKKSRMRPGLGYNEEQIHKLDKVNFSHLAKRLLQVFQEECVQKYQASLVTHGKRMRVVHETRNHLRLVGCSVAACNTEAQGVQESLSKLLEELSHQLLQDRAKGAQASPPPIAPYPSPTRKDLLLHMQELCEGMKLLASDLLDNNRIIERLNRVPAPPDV

[6] = biological target: panel of 255 wild-type kinases (Homo sapiens, UniProt Q15349); settings: read-out: %-inhibition at 1 µmol/L, RSK3
[7] = biological target: T2, panel of 255 wild-type kinases (Homo sapiens, UniProt Q9H093); settings: read-out: %-inhibition, NuaK2
T2 sequence (Q9H093 1-628): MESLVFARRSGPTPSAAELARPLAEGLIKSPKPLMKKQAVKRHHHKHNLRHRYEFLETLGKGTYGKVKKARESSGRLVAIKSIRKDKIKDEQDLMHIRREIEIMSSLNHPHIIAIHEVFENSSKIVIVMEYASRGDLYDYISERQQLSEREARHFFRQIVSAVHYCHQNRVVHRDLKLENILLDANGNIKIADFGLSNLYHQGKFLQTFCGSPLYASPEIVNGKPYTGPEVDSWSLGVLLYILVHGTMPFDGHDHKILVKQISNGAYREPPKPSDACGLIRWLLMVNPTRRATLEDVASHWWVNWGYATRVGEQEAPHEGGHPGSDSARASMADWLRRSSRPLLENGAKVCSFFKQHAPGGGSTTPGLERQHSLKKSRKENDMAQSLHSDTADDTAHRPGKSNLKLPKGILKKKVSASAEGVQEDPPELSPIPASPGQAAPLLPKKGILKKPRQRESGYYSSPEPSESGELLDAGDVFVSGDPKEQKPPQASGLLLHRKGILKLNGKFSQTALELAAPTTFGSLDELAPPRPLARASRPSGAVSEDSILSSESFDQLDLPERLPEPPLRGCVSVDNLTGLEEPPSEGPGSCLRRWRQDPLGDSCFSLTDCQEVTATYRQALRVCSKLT

[8] = biological target: panel of 255 wild-type kinases (Homo sapiens, UniProt Q9H1R3); settings: read-out: %-inhibition at 1 µmol/L, skMLCK
[9] = biological target: panel of 255 wild-type kinases (Homo sapiens, UniProt Q9NQU5); settings: read-out: %-inhibition, PAK6
[10] = biological target: T3, panel of 255 wild-type kinases (Homo sapiens, UniProt Q9NRA0); settings: read-out: %-inhibition at 1 µmol/L, SPHK2
T3 sequence (Q9NRA0 1-654): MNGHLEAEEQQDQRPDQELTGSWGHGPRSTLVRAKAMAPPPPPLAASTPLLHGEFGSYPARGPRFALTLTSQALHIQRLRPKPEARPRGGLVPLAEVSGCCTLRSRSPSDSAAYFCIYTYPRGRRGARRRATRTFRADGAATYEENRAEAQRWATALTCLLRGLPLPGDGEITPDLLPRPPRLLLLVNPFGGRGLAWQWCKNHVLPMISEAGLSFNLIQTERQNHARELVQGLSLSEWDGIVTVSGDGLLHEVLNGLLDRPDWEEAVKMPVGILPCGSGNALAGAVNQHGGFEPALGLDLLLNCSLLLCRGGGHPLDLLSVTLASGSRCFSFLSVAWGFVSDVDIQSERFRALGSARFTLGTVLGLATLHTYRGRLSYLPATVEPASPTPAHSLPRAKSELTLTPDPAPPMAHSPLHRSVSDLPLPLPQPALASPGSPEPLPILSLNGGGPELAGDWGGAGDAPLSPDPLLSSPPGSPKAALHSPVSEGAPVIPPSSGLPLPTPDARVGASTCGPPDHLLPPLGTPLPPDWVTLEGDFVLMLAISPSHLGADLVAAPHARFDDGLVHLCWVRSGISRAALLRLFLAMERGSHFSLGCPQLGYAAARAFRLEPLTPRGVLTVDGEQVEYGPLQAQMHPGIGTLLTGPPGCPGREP

[11] = kinase FGFR4, 1 µmol/L single concentration
[12] = kinase CK1ε, 1 µmol/L single concentration
[13] = BTK kinase assay, 1 µmol/L single concentration
[14] = AMPKα1/β1/γ1 kinase assay, 1 µmol/L single concentration
[15] = kinase IKKε, 1 µmol/L single concentration
[16] = kinase RSK3, 1 µmol/L single concentration
[17] = NuaK2, 1 µmol/L single concentration
[18] = kinase skMLCK, 1 µmol/L single concentration
[19] = PAK6, 1 µmol/L single concentration
[20] = kinase SPHK2, 1 µmol/L single concentration

SMILES	inhibition at 1 µM [1, 11] [%]	inhibition at 1 µM [2, 12] [%]	inhibition at 1 µM [3, 13] [%]	inhibition at 1 µM [4, 14] [%]	inhibition at 1 µM [5, 15] [%]	inhibition at 1 µM [6, 16] [%]	inhibition at 1 µM [7, 17] [%]	inhibition at 1 µM [8, 18] [%]	inhibition at 1 µM [9, 19] [%]	inhibition at 1 µM [10, 20] [%]	inhibition at 1 µM [1] [%]	inhibition at 1 µM [2] [%]	inhibition at 1 µM [3] [%]	inhibition at 1 µM [4] [%]	inhibition at 1 µM [5] [%]	inhibition at 1 µM [6] [%]	inhibition at 1 µM [7] [%]	inhibition at 1 µM [8] [%]	inhibition at 1 µM [9] [%]	inhibition at 1 µM [10] [%]
Cc1nc(NC(=O)N2CCC[C@H]2C(N)=O)sc1-c1ccnc(C(C)(C)C(F)(F)F)c1 [alpelisib]	9	-2.48	-0.621	-5	-4.31	-1.47	6	-3.8	10	6.5										
Cn1cc(-c2cc3c(N4CCN(c5ncc([C@@](C)(N)c6ccc(F)cc6)cn5)CC4)ncnn3c2)cn1 [avapritinib]	41	2.14	13	9	-0.262	10	68	1.29	9	0.914										
Cn1cnc2c(F)c(Nc3ccc(Br)cc3F)c(C(=O)NOCCO)cc21 [binimetinib]	4.66	-3.48	-3.75	-7	-3	-5	0.626	-5.4	4.75	-7.55										
CNC(=O)c1ccc(-c2cnc3ncc(Cc4ccc5ncccc5c4)n3n2)cc1F [capmatinib]											8	-6	8	-4.64	-5.46	5	-1	-2	-34	-2
COc1cc2ncnc(Nc3ccc(F)c(Cl)c3)c2cc1NC(=O)/C=C/CN1CCCCC1 [dacomitinib]	-4.42	6.55	43	-12	-2.11	27	2	10	6.65	7.54										
C[C@H](Nc1ncnc2nc[nH]c12)c1cc2cccc(Cl)c2c(=O)n1-c1ccccc1 [duvelisib]	5	5	1.85	-4	-0.56	-0.46	3.49	-7	3.69	11										
COC(=O)N[C@@H](C)CNc1nccc(-c2cn(C(C)C)nc2-c2cc(Cl)cc(NS(C)(=O)=O)c2F)n1 [encorafenib]	4.23	15	-1.36	-2.31	-3.36	-3.36	3.35	-4.51	13	-12										
CN1CCN(c2ccc(C(=O)Nc3n[nH]c4ccc(Cc5cc(F)cc(F)c5)cc34)c(NC3CCOCC3)c2)CC1 [entrectinib]	38	10	97	55	7		95	1.33	15	20										
CCc1nc(C(N)=O)c(Nc2ccc(N3CCC(N4CCN(C)CC4)CC3)c(OC)c2)nc1NC1CCOCC1 [gilteritinib]	15	5.55	81	0.625	10	64	73	5	22	9										
CCN1CCN(c2ccc(Nc3cc(N(C)C(=O)Nc4c(Cl)c(OC)cc(OC)c4Cl)ncn3)cc2)CC1 [infigratinib]		-6.49		-4	-6	-0.616	9	-3	10	2										
O=C(Nc1cnn2ccc(N3CCC[C@@H]3c3cc(F)ccc3F)nc12)N1CC[C@H](O)C1 [larotrectinib]	6	-2.19	-3.71	-5.64	7	-10	0.385	-6	13	-1.56										
C[C@H]1Oc2cc(cnc2N)-c2c(nn(C)c2C#N)CN(C)C(=O)c2ccc(F)cc21 [lorlatinib]	20	0.583	1.48	-3.58	-3.78	2.53	30	-0.456	14	10										
C=CC(=O)N1CCC([C@@H]2CCNc3c(C(N)=O)c(-c4ccc(Oc5ccccc5)cc4)nn32)CC1 [zanubrutinib]	7.51	4.32		-5.51	6	-7	0.524	-2.7	11	-6.64										
